Biological target: T1, BCAT2 (Homo sapiens, UniProt O15382)
T1 sequence (O15382 28-392): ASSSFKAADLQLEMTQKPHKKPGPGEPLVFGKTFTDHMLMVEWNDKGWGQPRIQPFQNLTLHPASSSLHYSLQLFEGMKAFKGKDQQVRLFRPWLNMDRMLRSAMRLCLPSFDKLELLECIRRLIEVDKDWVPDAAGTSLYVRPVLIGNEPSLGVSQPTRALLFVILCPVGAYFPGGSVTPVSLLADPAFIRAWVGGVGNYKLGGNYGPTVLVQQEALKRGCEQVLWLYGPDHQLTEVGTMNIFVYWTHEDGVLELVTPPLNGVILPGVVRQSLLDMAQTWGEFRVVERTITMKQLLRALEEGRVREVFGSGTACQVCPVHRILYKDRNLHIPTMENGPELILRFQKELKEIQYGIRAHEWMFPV
Experiment: BCAT2 in vitro enzyme inhibition assay (hBCAT2, glutamate dehydrogenase/diaphorase/resazurin coupled fluorescence read)
Assay type: biochemical
Details: hBCAT2, 1 h preincubation at 25° C., one hour reaction; average where tested multiple times
Description: • 2×Buffer: 200 mM Tris pH 8.0, 300 mM NaCl, 0.1% BSA • 1.67×hBCAT2 Enzyme Mix: 0.33 μg/mL hBCAT2, 1× Buffer • 2.5×Substrate Mix: 460 µM L-leucine, 420 µM α-KetoGlutarate, 10 U/mL glutamate dehydrogenase, 10 mM NAD, […] diaphorase, […] Resazurin
BCAT2 enzyme stock solution was diluted to prepare a 1.67×hBCAT2 Enzyme Mix. 1 μL of test compound was first added to the reaction wells followed by 30 μL of 1.67×hBCAT2 Enzyme Mix and incubated at room temperature (25° C.) for one hour. Meanwhile the Substrate Mix was prepared. The reaction was initiated by the addition of 20 μL of the 2.5×Substrate Mix, bringing the final reaction mix of all components to 1×. Reactions were quenched after one hour by the addition of 25 μL of 6% SDS and reaction progress was measured via fluorescence read (Ex 540/Em 590).
Test compounds were prepared at 50×final concentration in DMSO, 1 to 3 dilutions were made for 10 points. The compounds were added to the assay as a 1 to 50 dilution (1 μL in 50 μL) to yield a top assay final concentration of 100 μM, decreasing 3-fold for 10 points. Each compound dilution series test also included an assay max (1 μL DMSO Added in lieu of compound, Full Reaction Components Included) and Min (1 μL DMSO Added in lieu of compound, 30 μl of 1.67×hBCAT2 Enzyme Mix replated by 30 μL of 1×Buffer). All tests were performed in technical duplicate.
Where a compound was tested multiple times, the average value of the tests is reported.

| Compound | IC50 |
| --- | --- |
| N#Cc1ccccc1-c1nc2cnc(-c3nc(C(F)(F)F)co3)cc2n1[C@@H]1CCC[C@H](NC(=O)c2cc(F)ccn2)C1 [Example 99, N-((1S,3R)-3-(2-(2-cyanophenyl)-6-(4-(trifluoromethyl)oxazol-2-yl)-1H-imidazo[4,5-c]pyridin-1-yl)cyclohexyl)-4-fluoropicolinamide] | < 100 nM |
| N#Cc1ccccc1-c1nc2cnc(-c3nc(C(F)(F)F)co3)cc2n1[C@@H]1CCC[C@H](NC(=O)c2cc(F)ccc2F)C1 [Example 101, N-((1S,3R)-3-(2-(2-cyanophenyl)-6-(4-(trifluoromethyl)oxazol-2-yl)-1H-imidazo[4,5-c]pyridin-1-yl)cyclohexyl)-2,5-difluorobenzamide] | < 100 nM |
| O=C(N[C@H]1CCC[C@@H](n2c(-c3ccccc3F)nc3cnc(-c4nc[nH]n4)cc32)[C@@H]1O)c1cc(Cl)ccn1 [Example 103, 4-chloro-N-((1S,2R,3R)-3-(2-(2-fluorophenyl)-6-(1H-1,2,4-triazol-3-yl)-1H-imidazo[4,5-c]pyridin-1-yl)-2-hydroxycyclohexyl)picolinamide] | < 100 nM |
| COc1ccc(Cl)cc1C(=O)N[C@@H]1C[C@@H](OC)C[C@H](n2c(-c3ccccc3F)nc3cnc(-c4nc[nH]n4)cc32)C1 [Example 107, 5-chloro-N-((1S,3R,5R)-3-(2-(2-fluorophenyl)-6-(1H-1,2,4-triazol-3-yl)-1H-imidazo[4,5-c]pyridin-1-yl)-5-methoxycyclohexyl)-2-methoxybenzamide] | > 1000 nM |
| COc1ccc(Cl)cc1C(=O)N[C@H]1CCC[C@@H](n2c(-c3ccccc3C#N)nc3cnc(-c4nc[nH]n4)cc32)[C@@H]1O [Example 108, 5-chloro-N-((1S,2R,3R)-3-(2-(2-cyanophenyl)-6-(1H-1,2,4-triazol-3-yl)-1H-imidazo[4,5-c]pyridin-1-yl)-2-hydroxycyclohexyl)-2-methoxybenzamide] | < 100 nM |
| COc1ccc(Cl)cc1C(=O)N[C@@H]1CCCC[C@H](n2c(-c3c(F)cccc3OC)nc3cnc(-c4nc[nH]n4)cc32)[C@H]1O [Example 109, 5-chloro-N-((1R,2S,3S)-3-(2-(2-fluoro-6-methoxyphenyl)-6-(1H-1,2,4-triazol-3-yl)-1H-imidazo[4,5-c]pyridin-1-yl)-2-hydroxycycloheptyl)-2-methoxybenzamide] | 500 to 1000 nM |
| COc1ccc(Cl)cc1C(=O)N[C@H]1CCCC[C@@H](n2c(-c3c(F)cccc3OC)nc3cnc(-c4nc[nH]n4)cc32)[C@@H]1O [Example 110, 5-chloro-N-((1S,2R,3R)-3-(2-(2-fluoro-6-methoxyphenyl)-6-(1H-1,2,4-triazol-3-yl)-1H-imidazo[4,5-c]pyridin-1-yl)-2-hydroxycycloheptyl)-2-methoxybenzamide] | < 100 nM |
| COc1ccc(Cl)cc1C(=O)N[C@H]1C[C@H](O)C[C@@H](n2c(CC(C)C)nc3cnc(-c4ncccn4)cc32)C1 [Example 111, 5-chloro-N-((1R,3S,5S)-3-hydroxy-5-(2-isobutyl-6-(pyrimidin-2-yl)-1H-imidazo[4,5-c]pyridin-1-yl)cyclohexyl)-2-methoxybenzamide] | < 100 nM |
| COc1ccc(Cl)cc1C(=O)N[C@@H]1C[C@@H](O)C[C@H](n2c(CC(C)C)nc3cnc(-c4ncccn4)cc32)C1 [Example 112, 5-chloro-N-((1S,3R,5R)-3-hydroxy-5-(2-isobutyl-6-(pyrimidin-2-yl)-1H-imidazo[4,5-c]pyridin-1-yl)cyclohexyl)-2-methoxybenzamide] | > 1000 nM |
| CO[C@H]1C[C@@H](NC(=O)c2cc(F)ccn2)C[C@@H](n2c(-c3ccccc3F)nc3cnc(-c4nc[nH]n4)cc32)C1 [Example 115, 4-fluoro-N-((1S,3R,5S)-3-(2-(2-fluorophenyl)-6-(1H-1,2,4-triazol-3-yl)-1H-imidazo[4,5-c]pyridin-1-yl)-5-methoxycyclohexyl)picolinamide] | 100 to 500 nM |
| CC(C)Cc1nc2cnc(-c3nc[nH]n3)cc2n1[C@@H]1CCC[C@H](NC(=O)c2cc(F)ccc2F)[C@H]1O [Example 121, 2,5-difluoro-N-((1S,2R,3R)-2-hydroxy-3-(2-isobutyl-6-(1H-1,2,4-triazol-3-yl)-1H-imidazo[4,5-c]pyridin-1-yl)cyclohexyl)benzamide] | 100 to 500 nM |
| CO[C@H]1C[C@H](NC(=O)c2cc(F)ccc2F)C[C@H](n2c(-c3ccccc3OCCO)nc3cnc(-c4ncco4)cc32)C1 [Example 123, 2,5-difluoro-N-((1R,3S,5S)-3-(2-(2-(2-hydroxyethoxy)phenyl)-6-(oxazol-2-yl)-1H-imidazo[4,5-c]pyridin-1-yl)-5-methoxycyclohexyl)benzamide] | < 100 nM |
| CO[C@H]1C[C@H](NC(=O)c2cc(Cl)ccc2F)C[C@H](n2c(-c3ccccc3OCCO)nc3cnc(-c4ncco4)cc32)C1 [Example 124, 5-chloro-2-fluoro-N-((1R,3S,5S)-3-(2-(2-(2-hydroxyethoxy)phenyl)-6-(oxazol-2-yl)-1H-imidazo[4,5-c]pyridin-1-yl)-5-methoxycyclohexyl)benzamide] | < 100 nM |
| Cc1coc(-c2cc3c(cn2)nc(-c2ccccc2F)n3[C@@H]2CCC[C@H](NC(=O)c3cc(F)ccc3F)[C@H]2O)n1 [Example 125, 2,5-difluoro-N-((1S,2R,3R)-3-(2-(2-fluorophenyl)-6-(4-methyloxazol-2-yl)-1H-imidazo[4,5-c]pyridin-1-yl)-2-hydroxycyclohexyl)benzamide] | < 100 nM |
| O=C(NC1CCCCC(n2c(-c3ccccc3F)nc3cnc(-c4nc(C(F)(F)F)co4)cc32)C1O)c1cc(F)ccc1F (stereo not shown) [Example 126, 2,5-difluoro-N-(3-(2-(2-fluorophenyl)-6-(4-(trifluoromethyl)oxazol-2-yl)-1H-imidazo[4,5-c]pyridin-1-yl)-2-hydroxycycloheptyl)benzamide] | < 100 nM |
| N[C@@H]1[C@@H](NC(=O)c2cc(F)ccc2F)CCC[C@H]1n1c(-c2ccccc2F)nc2cnc(-c3nc[nH]n3)cc21 [Example 127, N-((1S,2R,3R)-2-amino-3-(2-(2-fluorophenyl)-6-(1H-1,2,4-triazol-3-yl)-1H-imidazo[4,5-c]pyridin-1-yl)cyclohexyl)-2,5-difluorobenzamide] | < 100 nM |
| CN1C[C@@H](NC(=O)c2cc(Cl)ccn2)C[C@@H](n2c(-c3ncccc3F)nc3cnc(-c4nc[nH]n4)cc32)C1 [Example 131, 4-chloro-N-((3S,5R)-5-(2-(3-fluoropyridin-2-yl)-6-(1H-1,2,4-triazol-3-yl)-1H-imidazo[4,5-c]pyridin-1-yl)-1-methylpiperidin-3-yl)picolinamide] | > 1000 nM |
| COc1ccc(Cl)cc1C(=O)N[C@H]1C[C@@H](n2c(-c3ccccc3F)nc3cnc(-c4nc[nH]n4)cc32)CN(C)C1 [Example 135, 5-chloro-N-((3S,5R)-5-(2-(2-fluorophenyl)-6-(1H-1,2,4-triazol-3-yl)-1H-imidazo[4,5-c]pyridin-1-yl)-1-methylpiperidin-3-yl)-2-methoxybenzamide] | 500 to 1000 nM |
| COc1ccc(Cl)cc1C(=O)N[C@H]1C[C@@H](n2c(-c3ncccc3F)nc3cnc(-c4nc[nH]n4)cc32)CN(C)C1 [Example 138, 5-chloro-N-((3S,5R)-5-(2-(3-fluoropyridin-2-yl)-6-(1H-1,2,4-triazol-3-yl)-1H-imidazo[4,5-c]pyridin-1-yl)-1-methylpiperidin-3-yl)-2-methoxybenzamide] | > 1000 nM |
| CN1C[C@@H](NC(=O)c2cc(Cl)ccc2F)C[C@@H](n2c(-c3ccccc3F)nc3cnc(-c4nc[nH]n4)cc32)C1 [Example 144, 5-chloro-2-fluoro-N-((3S,5R)-5-(2-(2-fluorophenyl)-6-(1H-1,2,4-triazol-3-yl)-1H-imidazo[4,5-c]pyridin-1-yl)-1-methylpiperidin-3-yl)benzamide] | 100 to 500 nM |
| CN1CC(NC(=O)c2cc(F)ccc2F)CC(n2c(-c3ncccc3F)nc3cnc(-c4nc[nH]n4)cc32)C1 (stereo not shown) [Example 146, 2,5-difluoro-N-(5-(2-(3-fluoropyridin-2-yl)-6-(1H-1,2,4-triazol-3-yl)-1H-imidazo[4,5-c]pyridin-1-yl)-1-methylpiperidin-3-yl)benzamide] | 100 to 500 nM |
| CN1CC(NC(=O)c2cc(Cl)ccc2F)CC(n2c(-c3ncccc3F)nc3cnc(-c4nc[nH]n4)cc32)C1 (stereo not shown) [Example 147, 5-chloro-2-fluoro-N-(5-(2-(3-fluoropyridin-2-yl)-6-(1H-1,2,4-triazol-3-yl)-1H-imidazo[4,5-c]pyridin-1-yl)-1-methylpiperidin-3-yl)benzamide] | 100 to 500 nM |
